Assay results: ChEMBL document CHEMBL6103559, “Marine actinomycetes-derived angucyclines and angucyclinones with biosynthesis and activity--past 10 years (2014-2023)” (Eur J Med Chem, 2025)
pIC50: −log10 of the molar value. Converted amounts (≈) assume the structure as drawn.

How the values were obtained:
HCT-116 [1] = assay: Cytotoxicity against human HCT-116 cells assessed as reduction in cell viability incubated for 48 hrs by MTT assay; type: functional, cell-based; settings: HCT-116, 48 h
MDA-MB-435 = assay: Cytotoxicity against human MDA-MB-435 cells assessed as reduction in cell viability incubated for 48 hrs by MTT assay; type: functional, cell-based; settings: MDA-MB-435, 48 h
MCF-10A = assay: Cytotoxicity against human MCF-10A cells assessed as reduction in cell viability incubated for 48 hrs by MTT assay; type: functional, cell-based
HepG2 [2] = assay: Cytotoxicity against human HepG2 cells assessed as reduction in cell viability incubated for 48 hrs by MTT assay; type: functional, cell-based; settings: HepG2, 48 h
NCI-H460 = assay: Cytotoxicity against human NCI-H460 cells assessed as reduction in cell viability incubated for 48 hrs by MTT assay; type: functional, cell-based; settings: NCI-H460, 48 h
MDA-MB-231 [3] = assay: Cytotoxicity against human MDA-MB-231 cells assessed as reduction in cell viability incubated for 48 hrs by MTT assay; type: functional, cell-based; settings: MDA-MB-231, 48 h
PC-3 [4] = assay: Cytotoxicity against human PC-3 cells; type: functional, cell-based
Candida albicans = assay: Antifungal activity against Candida albicans assessed as reduction in […] growth measured for 12 hrs by broth micro-dilution method; type: functional
Staphylococcus aureus [5] = assay: Antibacterial activity against Staphylococcus aureus ATCC 43300 assessed as reduction in bacterial growth measured for 12 hrs by broth micro-dilution method; type: functional
HCT-15 = assay: Growth inhibition of human HCT-15 cells after 48 hrs by sulforhodamine B assay; type: functional
PC-3 [6] = assay: Growth inhibition of human PC-3 cells after 48 hrs by sulforhodamine B assay; type: functional
ACHN = assay: Growth inhibition of human ACHN cells after 48 hrs by sulforhodamine B assay; type: functional
NCI-H23 = assay: Growth inhibition of human NCI-H23 cells after 48 hrs by sulforhodamine B assay; type: functional
NUGC-3 = assay: Growth inhibition of human NUGC-3 cells after 48 hrs by sulforhodamine B assay; type: functional
MDA-MB-231 [7] = assay: Growth inhibition of human MDA-MB-231 cells after 48 hrs by sulforhodamine B assay; type: functional
Jurkat = assay: Cytotoxicity against human Jurkat T cells; type: functional, cell-based
Staphylococcus aureus [8] = assay: Antibacterial activity against methicillin-resistant Staphylococcus aureus assessed as reduction in microbial growth by CLSI based broth microdilution method; type: functional
HCT-116 [9] = assay: Cytotoxicity against human HCT-116 cells by SRB assay; type: functional, cell-based
SNU-638 = assay: Cytotoxicity against human SNU-638 cells by SRB assay; type: functional, cell-based
MDA-MB-231 [10] = assay: Cytotoxicity against human MDA-MB-231 cells by SRB assay; type: functional, cell-based
SK-HEP1 = assay: Cytotoxicity against human SK-HEP1 cells by SRB assay; type: functional, cell-based
A549 [11] = assay: Cytotoxicity against human A549 cells by SRB assay; type: functional, cell-based
SF-268 = assay: Cytotoxicity against human SF-268 cells assessed as reduction in cell growth incubated for 72 hrs by SRB assay; type: functional, cell-based; settings: SF-268, 72 h
HepG2 [12] = assay: Cytotoxicity against human HepG2 cells assessed as reduction in cell growth incubated for 72 hrs by SRB assay; type: functional, cell-based; settings: HepG2, 72 h
A549 [13] = assay: Cytotoxicity against human A549 cells assessed as reduction in cell growth incubated for 72 hrs by SRB assay; type: functional, cell-based; settings: A549, 72 h
MCF7 = assay: Cytotoxicity against human MCF7 cells assessed as reduction in cell growth incubated for 72 hrs by SRB assay; type: functional, cell-based; settings: MCF7, 72 h
MDA-MB-468 = assay: Cytotoxicity against human MDA-MB-468 cells; type: functional, cell-based
BT-549 = assay: Cytotoxicity against human BT-549 cells; type: functional, cell-based
MDA-MB-231 [14] = assay: Cytotoxicity against human MDA-MB-231 cells; type: functional, cell-based
Salmonella typhimurium = assay: Antibacterial activity against multi-drug resistant Salmonella Typhimurium CCARM 8250 assessed as inhibition of bacterial growth incubated for 18 hrs by microplate reader analysis; type: functional, Salmonella enterica subsp. enterica serovar Typhimurium; settings: Salmonella enterica
Enterococcus faecium = assay: Antibacterial activity against multi-drug resistant Enterococcus faecium CCARM 5203 assessed as inhibition of bacterial growth incubated for 18 hrs by microplate reader analysis; type: functional
Staphylococcus aureus [15] = assay: Antibacterial activity against multi-drug resistant Staphylococcus aureus CCARM 3090 assessed as inhibition of bacterial growth incubated for 18 hrs by microplate reader analysis; type: functional
Escherichia coli [16] = assay: Antibacterial activity against multi-drug resistant Escherichia coli CCARM 1009 assessed as inhibition of bacterial growth incubated for 18 hrs by microplate reader analysis; type: functional
Enterococcus faecalis = assay: Antibacterial activity against multi-drug resistant Enterococcus faecalis CCARM 5172 assessed as inhibition of bacterial growth incubated for 18 hrs by microplate reader analysis; type: functional
MDA-MB-231 [17] = assay: Cytotoxicity against human MDA-MB-231 cells assessed as reduction in cell growth by MTT assay; type: functional, cell-based
NCI-H69 = assay: Cytotoxicity against human NCI-H69 cells assessed as reduction in cell growth by MTT assay; type: functional, cell-based
K562 = assay: Cytotoxicity against human K562 cells assessed as reduction in cell growth by MTT assay; type: functional, cell-based
ASPC1 = assay: Cytotoxicity against human ASPC1 cells assessed as reduction in cell growth by MTT assay; type: functional, cell-based
H69AR = assay: Cytotoxicity against human NCI-H69AR cells assessed as reduction in cell growth by MTT assay; type: functional, cell-based
Klebsiella pneumoniae = assay: Antibacterial activity against Klebsiella pneumoniae CMCC(B) 46117 assessed as reduction in microbial growth measured for 18 hrs; type: functional
Pseudomonas aeruginosa = assay: Antimicrobial activity against Pseudomonas aeruginosa CMCC(B) 10104 assessed as reduction in microbial growth measured for 18 hrs; type: functional
Staphylococcus aureus [18] = assay: Antimicrobial activity against methicillin-resistant Staphylococcus aureus assessed as reduction in microbial growth measured for 18 hrs; type: functional
Escherichia coli [19] = assay: Antibacterial activity against Escherichia coli CMCC(B) 44102 assessed as reduction in microbial growth measured for 18 hrs; type: functional
Bacillus subtilis = assay: Antibacterial activity against Bacillus subtilis CMCC(B) 63501 assessed as reduction in microbial growth measured for 18 hrs; type: functional
A2780 = assay: Cytotoxicity against human A2780 cells assessed as reduction in cell growth by SRB assay; type: functional, cell-based
PC-3 [20] = assay: Cytotoxicity against human PC-3 cells assessed as reduction in cell growth by SRB assay; type: functional, cell-based

SMILES: C[C@@H]1O[C@@H](O[C@H]2CC[C@H](O[C@H]3[C@H](O)C[C@H](c4ccc5c(c4O)C(=O)c4ccc6c(c4C5=O)C(=O)C[C@](C)(O)C6)O[C@@H]3C)O[C@H]2C)CCC1=O
- pIC50 (HCT-116 [1]): 5.62
- pIC50 (MDA-MB-435): 5.62
- pIC50 (MCF-10A): 5.62
- pIC50 (HepG2 [2]): 5.62
- pIC50 (NCI-H460): 5.62
- pIC50 (MDA-MB-231 [3]): 5.62

SMILES: C[C@@]12CC(=O)[C@@]3(O)[C@](O)(CC[C@H]4C(=O)c5c(O)cccc5[C@@H](O)[C@@]43O1)C2
- pIC50 (PC-3 [4]): 5.86

SMILES: CC(=O)C[C@H](SCc1cc2cc(C)cc(O)c2c2c1C(=O)c1c(O)cccc1C2=O)C(=O)O
- MIC (Candida albicans): 20 µM (≈ 9.29 µg/mL)
- MIC (Staphylococcus aureus [5]): 20 µM (≈ 9.29 µg/mL)

SMILES: CSC1=CC2=C(C(=O)c3ccc([C@H]4C[C@@H](O[C@H]5CC[C@H](O[C@H]6C[C@@H](O)[C@H](O)[C@@H](C)O6)[C@H](C)O5)[C@H](O)CO4)c(O)c3C2=O)[C@@]2(O)C(=O)C[C@](C)(O)C[C@@]12O
- GI50 (HCT-15): 0.01 µM
- GI50 (PC-3 [6]): 0.01 µM
- GI50 (ACHN): 0.01 µM
- GI50 (NCI-H23): 0.01 µM
- GI50 (NUGC-3): 0.01 µM
- GI50 (MDA-MB-231 [7]): 0.01 µM

SMILES: Cc1cc(O)c2cc3c(c(O)c2c1)C(=O)c1ccc([C@H]2C[C@@H](O)[C@H](O[C@H]4CC[C@H](OC5=CC(=O)[C@@H](C)OC5)[C@H](C)O4)[C@@H](C)O2)c(O)c1C3=O
- pIC50 (Jurkat): 5.52

SMILES: CC(C)C1(O)CC(=O)c2c(cc(O)c3c2C(=O)c2cccc(O)c2C3=O)C1=O (stereo not given)
- MIC (Staphylococcus aureus [8]): 3.12 µg/mL

SMILES: COc1cccc2c1C(=O)O[C@H]2c1c(O)ccc2c1C(=O)C[C@@H](C)[C@@H]2O
- pIC50 (HCT-116 [9]): 5.17
- pIC50 (SNU-638): 5.17
- pIC50 (MDA-MB-231 [10]): 5.17
- pIC50 (SK-HEP1): 5.17
- pIC50 (A549 [11]): 5.17

SMILES: Cc1cc(O)c2c(c1)C1c3c-2c(O)c2cccc(O)c2c3OC(=O)C1c1c[nH]c2ccccc12 (stereo not given)
- pIC50 (SF-268): 5.15
- pIC50 (HepG2 [12]): 5.15
- pIC50 (A549 [13]): 5.15
- pIC50 (MCF7): 5.15

SMILES: CN[C@@H]1C[C@H](c2c(O)c3c(c4c(O)cc(C)cc24)C(=O)c2cccc(O)c2C3=O)O[C@H](C)[C@H]1O
- pIC50 (MDA-MB-468): 6.22
- pIC50 (BT-549): 6.22
- pIC50 (MDA-MB-231 [14]): 6.22

SMILES: C[C@@H]1O[C@@H](O[C@H]2[C@H](O)C[C@H](c3ccc4c(c3O)C(=O)c3ccc(C[C@@](C)(O)CC(=O)O)c(O)c3C4=O)O[C@@H]2C)CC[C@@H]1O
- MIC (Salmonella typhimurium): 3.12 µg/mL (≈ 5.19 µM)
- MIC (Enterococcus faecium): 3.12 µg/mL (≈ 5.19 µM)
- MIC (Staphylococcus aureus [15]): 3.12 µg/mL (≈ 5.19 µM)
- MIC (Escherichia coli [16]): 3.12 µg/mL (≈ 5.19 µM)
- MIC (Enterococcus faecalis): 3.12 µg/mL (≈ 5.19 µM)

SMILES: CC(C)c1cc(=O)c2c(cc(O)c3c(=O)c4c(O)cccc4c(=O)c32)c1=O
- MIC (Staphylococcus aureus [8]): 3.12 µg/mL

SMILES: CC(C)C1(O)CC(=O)c2c(cc(O)c3c2C(=O)c2cccc(O)c2C3=O)C1 (stereo not given)
- MIC (Staphylococcus aureus [8]): 3.12 µg/mL

SMILES: CC1=CC(=O)[C@]2(O)[C@](O)(CC[C@@]34O[C@@]23C(=O)c2cccc(O)c2C4=O)C1
- pIC50 (MDA-MB-231 [17]): 6.49
- pIC50 (NCI-H69): 6.49
- pIC50 (K562): 6.49
- pIC50 (ASPC1): 6.49
- pIC50 (H69AR): 6.49

SMILES: CO[C@@H]1C[C@@H](O[C@H]2C=C(C)[C@@H](O)[C@]3(O)[C@@H](OC(=O)O)[C@@H](O)C4=C(C(=O)c5ccc([C@H]6C[C@@H](O[C@H]7C[C@](C)(O)[C@H](O[C@H]8CC[C@H](OC(N)=O)[C@@H](C)O8)[C@@H](C)O7)[C@@H](O)[C@@H](C)O6)c(O)c5C4=O)[C@]23O)O[C@@H](C)[C@H]1O
- MIC (Klebsiella pneumoniae): 16 µg/mL
- MIC (Pseudomonas aeruginosa): 16 µg/mL
- MIC (Staphylococcus aureus [18]): 16 µg/mL
- MIC (Escherichia coli [19]): 16 µg/mL
- MIC (Bacillus subtilis): 8 µg/mL

SMILES: CC(=O)N[C@@H](CSc1cc2cc(C)cc(O)c2c2c1C(=O)c1c(O)cccc1C2=O)C(=O)O
- pIC50 (A2780): 4.99
- MIC (Candida albicans): 20 µM (≈ 9.31 µg/mL)
- pIC50 (PC-3 [20]): 4.71
- MIC (Staphylococcus aureus [5]): 20 µM (≈ 9.31 µg/mL)

SMILES: CO[C@@H]1C[C@@H](O[C@H]2C=C(C)C[C@]3(O)[C@@H](OC(=O)O)[C@@H](O)C4=C(C(=O)c5ccc([C@H]6C[C@@H](O[C@H]7C[C@](C)(O)[C@H](O[C@H]8CC[C@H](OC(N)=O)[C@@H](C)O8)[C@@H](C)O7)[C@@H](O)[C@@H](C)O6)c(O)c5C4=O)[C@]23O)O[C@@H](C)[C@H]1O
- MIC (Klebsiella pneumoniae): 16 µg/mL
- MIC (Pseudomonas aeruginosa): 16 µg/mL
- MIC (Staphylococcus aureus [18]): 16 µg/mL
- MIC (Escherichia coli [19]): 16 µg/mL
- MIC (Bacillus subtilis): 8 µg/mL
